Calls of active or inactive are those of the source. No cut-off for these calls is given here.

This note sets out measurements from ChEMBL document CHEMBL4699511, “Cedrol, a Sesquiterpene Alcohol, Enhances the Anticancer Efficacy of Temozolomide in Attenuating Drug Resistance via Regulation of the DNA Damage Response and MGMT Expression” (J Nat Prod, 2020).

Data set [1] deals with DBTRG-05MG. As to the kind of experiment: Induction of apoptosis in human DBTRG-05MG cells assessed as increase in apoptotic body formation at 206 uM after 48 hrs by TUNEL assay. The data set is classed as functional, cell-based.
In data set [2] the test system is DBTRG-05MG. The experiment in a line: Induction of cell cycle arrest in human DBTRG-05MG cells assessed as accumulation at G2/M phase at 206 uM after 6 hrs by propidium iodide staining based flow cytometric analysis (reference value: 30.08 +/- 0.1%). The data set is classed as functional.
Data set [3] deals with RG2. The experiment in a line: Induction of cell cycle arrest in rat RG2 cells assessed as accumulation at G0/G1 phase at 206 uM after 24 hrs by propidium iodide staining based flow cytometric analysis (reference value: 57.81 +/- 1.9%). The data set is classed as functional. In general terms: In flow cytometry, cells or beads pass a laser one at a time.
In data set [4] the test system is DBTRG-05MG. As to the kind of experiment: Induction of apoptosis in human DBTRG-05MG cells assessed as phosphorylated PARP expression at 206 uM after 48 hrs by Western blot analysis (reference value: 1). The data set is classed as functional.
In data set [5] the test system is DBTRG-05MG. The experiment in a line: Induction of cell cycle arrest in human DBTRG-05MG cells assessed as CDK4 expression at 206 uM after 48 hrs by Western blot analysis (reference value: 1). The data set is classed as functional. For orientation: In western blotting, separated proteins are transferred to a membrane and probed.
Data set [6] can be described thus: Synergistic cytotoxicity against rat CTX TNA2 cells assessed as synergistic effect index at 112.4 uM after 48 hrs in presence of 309 uM TMZ by MTT assay. The data set is classed as cell-based. Conditions: ctx tna2, 48 h. Background: Formazan colour is commonly taken as a measure of viable cells.
Data set [7] relates to DBTRG-05MG. As to the kind of experiment: Induction of cell cycle arrest in human DBTRG-05MG cells assessed as accumulation at G2/M phase at 112.4 uM after 24 hrs by propidium iodide staining based flow cytometric analysis (reference value: 30.08 +/- 0.1%). The data set is classed as functional.
Data set [8] relates to RG2. As to the kind of experiment: Induction of apoptosis in rat RG2 cells assessed as phosphorylated caspace-3 expression at 112.4 uM after 48 hrs by Western blot analysis (reference value: 1). The data set is classed as functional.
In data set [9] the test system is RG2. The experiment in a line: Induction of apoptosis in rat RG2 cells assessed as phosphorylated caspace-9 expression at 112.4 uM after 48 hrs by Western blot analysis (reference value: 1). The data set is classed as functional.
Data set [10] has as its system DBTRG-05MG. The experiment in a line: Induction of cell cycle arrest in human DBTRG-05MG cells assessed as accumulation at G0/G1 phase at 112.4 uM after 24 hrs in presence of TMZ by propidium iodide staining based flow cytometric analysis (reference value: 47.16 +/- 1.55%). The data set is classed as functional.
The test system of data set [11] is RG2. As to the kind of experiment: Induction of cell cycle arrest in rat RG2 cells assessed as accumulation at S phase at 112.4 uM after 6 hrs by propidium iodide staining based flow cytometric analysis (reference value: 20.15 +/- 2.44%). The data set is classed as functional.
Data set [12] deals with DBTRG-05MG. As to the kind of experiment: Induction of apoptosis in human DBTRG-05MG cells assessed as cleaved caspace-3 expression at 112.4 uM after 48 hrs by Western blot analysis (reference value: 1). The data set is classed as functional.
Data set [13] relates to DBTRG-05MG. The experiment in a line: Synergistic cytotoxicity against human DBTRG-05MG cells assessed as combination index at 112.4 uM after 48 hrs in presence of 103 uM TMZ by MTT assay. The data set is classed as functional.
The test system of data set [14] is RG2. As to the kind of experiment: Synergistic cytotoxicity against rat RG2 cells assessed as combination index at 134.9 uM after 48 hrs in presence of 309 uM TMZ by MTT assay. The data set is classed as functional.
Data set [15] concerns RG2. As to the kind of experiment: Synergistic cytotoxicity against rat RG2 cells assessed as synergistic effect index at 134.9 uM after 48 hrs in presence of 103 uM TMZ by MTT assay. The data set is classed as functional.
The test system of data set [16] is RG2. As to the kind of experiment: Induction of cell cycle arrest in rat RG2 cells assessed as accumulation at G0/G1 phase at 112.4 uM after 48 hrs in presence of TMZ by propidium iodide staining based flow cytometric analysis (reference value: 57.81 +/- 1.9%). The data set is classed as functional.
Data set [17] relates to DBTRG-05MG. As to the kind of experiment: Induction of cell cycle arrest in human DBTRG-05MG cells assessed as accumulation at S phase at 112.4 uM after 24 hrs in presence of TMZ by propidium iodide staining based flow cytometric analysis (reference value: 22.76 +/- 1.56%). The data set is classed as functional.
The test system of data set [18] is RG2. The experiment in a line: Induction of cell cycle arrest in rat RG2 cells assessed as accumulation at G0/G1 phase at 112.4 uM after 12 hrs by propidium iodide staining based flow cytometric analysis (reference value: 57.81 +/- 1.9%). The data set is classed as functional.
For data set [19], the system named is RG2. The experiment in a line: Induction of cell cycle arrest in rat RG2 cells assessed as accumulation at G2/M phase at 112.4 uM after 48 hrs by propidium iodide staining based flow cytometric analysis (reference value: 20.04 +/- 0.55%). The data set is classed as functional.
Data set [20] deals with RG2. The experiment in a line: Induction of apoptosis in rat RG2 cells assessed as phosphorylated PARP expression at 112.4 uM after 48 hrs in presence of TMZ by Western blot analysis (reference value: 1). The data set is classed as functional.
Data set [21] can be described thus: Effect of MGMT expression in rat RG2 cells at 112.4 uM after 48 hrs by Western blot analysis (reference value: 1). The data set is classed as functional.
For data set [22], the system named is DBTRG-05MG. As to the kind of experiment: Synergistic cytotoxicity against human DBTRG-05MG cells assessed as combination index at 89.9 uM after 48 hrs in presence of 515.1 uM TMZ by MTT assay. The data set is classed as functional.
The test system of data set [23] is DBTRG-05MG. As to the kind of experiment: Induction of cell cycle arrest in human DBTRG-05MG cells assessed as accumulation at G2/M phase at 112.4 uM after 48 hrs in presence of TMZ by propidium iodide staining based flow cytometric analysis (reference value: 30.08 +/- 0.1%). The data set is classed as functional.
For data set [24], the system named is RG2. As to the kind of experiment: Induction of cell cycle arrest in rat RG2 cells assessed as CyclinD1 expression at 112.4 uM after 48 hrs in presence of TMZ by Western blot analysis (reference value: 1). The data set is classed as functional.
Data set [25] deals with DBTRG-05MG. As to the kind of experiment: Antitumour activity against human DBTRG-05MG cells xenografted in BALB/c nude mouse assessed as increase in survival time at 75 mg/kg, sc for every 2 days for 20 days and measured every 2 days. The data set is classed as functional, organism-based. Conditions: time 20.0 day.
In data set [26] the test system is DBTRG-05MG. The experiment in a line: Synergistic cytotoxicity against human DBTRG-05MG cells assessed as synergistic effect index at 134.9 uM after 48 hrs in presence of 412.1 uM TMZ by MTT assay. The data set is classed as functional.
Data set [27] is described as follows: Synergistic cytotoxicity against rat CTX TNA2 cells assessed as combination index at 112.4 uM after 48 hrs in presence of 103 uM TMZ by MTT assay. The data set is classed as cell-based. The following applies: ctx tna2, 48 h.
The nature of data set [28]: Inhibition of TMZ-induced drug resistance in human DBTRG-05MG cells assessed as MDR1 expression at 112.4 uM after 48 hrs by Western blot analysis (reference value: 1.5). The data set is classed as functional.
Data set [29] in a line: Toxicity in BALB/c mouse xenografted with DBTRG-05MG cells assessed as inflammatory cell infiltration score in liver at 75 mg/kg, sc co-treated with TMZ for 18 days by H and E staining-based bright field microscopic analysis. The data set is classed as organism-based. The following applies: in vivo, 432 h, time 18 day.
For data set [30], the system named is RG2. The experiment in a line: Induction of DNA damage in rat RG2 cells assessed as ATM phosphorylation at ser1981 residues at 112.4 uM after 48 hrs in presence of TMZ by Western blot analysis (reference value: 1). The data set is classed as functional.
The nature of data set [31]: Inhibition of TMZ-induced drug resistance in rat RG2 cells assessed as MGMT expression at 112.4 uM after 48 hrs by Western blot analysis (reference value: 2). The data set is classed as functional.
The test system of data set [32] is RG2. As to the kind of experiment: Induction of apoptosis in rat RG2 cells assessed as increase in apoptotic body formation at 112.4 uM after 48 hrs in presence of TMZ by TUNEL assay. The data set is classed as functional, cell-based.

Turning to `Cn1nnc2c(C(N)=O)ncn2c1=O` [TEMOZOLOMIDE], the result in [1] was Active. For the same compound, the Activity in data set [2] came to 34.67%; in [3], 52.7%. The “fold change (FC)” value in [4] is reported as 0.4; in data set [5], 0.7.

For `C[C@@H]1CC[C@H]2C(C)(C)[C@H]3C[C@@]12CC[C@@]3(C)O` [CEDROL], the values for the Activity_index in data set [6], in data set [15] and in data set [26] were 0.51, 0.9 and 0.9, respectively. In addition, the Activity in [7] is given as 26.38%; in data set [10], 48.93%; in data set [11], 17.99%; in [16], 44%; in data set [17] it was 14.17%; in [18], 64.98%. Also, the figures for the Activity in data set [19], in data set [23] and in [29] were 20.33%, 38.26% and 1.23, respectively. Also, the “fold change (FC)” value in data set [8] amounted to 1.1; in data set [9], 0.6; in data set [12] it was 2.2; in [20], 0.5; in data set [21], 0.7; in [24], 0.8. The “fold change (FC)” value in data set [28] is 0.7; in data set [30], 1; in data set [31], 0.5. Also, the CI is listed as 0.56 in data set [13], 0.92 in data set [14], 0.81 in data set [22] and 1.24 in [27]. Also, the result in data set [25] and in [32] was Active.
